Measurements published in article PMC2898572 (Journal of neurochemistry, 2009).
Values joined by “and” are separate entries in the source; they are usually repeats but may differ in a detail not shown here. Equal values may be shown once.

Legend:
PEPT2 = conditions: rat choroid plexus; concentrations 1,000 times in excess; ref Teuscher et al. 2001; cited from earlier work
[1] = system: wild-type and Pept2 null mice; assay: Hot-plate test; type: in vivo; conditions: for ED50: icv
[2] = system: opioid peptide transport system; conditions: SK-N-SH cells; ref Thakker et al. 2008; cited from earlier work
rat PEPT2 = conditions: read-out: Ki (PEPT2 inhibitor); LLC-PK1 cells stably transfected with rat PEPT2; ref Terada et al. 2000; cited from earlier work

Row | Compound | effect on the uptake of GlySar (PEPT2) | maximum analgesia ([1]; 100 nmol icv, both genotypes) | duration of response to 100 nmol dose ([1]; 100 nmol icv, both genotypes, 40 min experiment) | ED50 ([1]; Pept2 null mice, response at 5 min, estimate ± standard error) | time of maximum analgesia ([1]; after icv injection, both genotypes) | ED50 ([1]; both genotypes (wild-type and Pept2 null)) | ED50 ([1]; wild-type mice, response at 5 min, estimate ± standard error) | difference in ED50 between genotypes ([1]; wild-type vs Pept2 null) | stimulation of opioid peptide transport system [2] | Ki (rat PEPT2) | effect on the MPE of L-KTP ([1]; bestatin 160 nmol icv with 4 nmol L-KTP, Pept2 null mice, p=0.2931)
1 | L-Tyr-D-Arg [D-KTP] | no effect | 100 % MPE | fully analgesic throughout the 40 min experiment | 9.1 ± 0.8 nmol | 5 min | 9 to 10 nmol | 10.3 nmol and 10.3 ± 1.0 nmol | ~ 10% | little stimulation | – | –
2 | CC(C)C[C@H](NC(=O)[C@@H](O)[C@H](N)Cc1ccccc1)C(=O)O [bestatin] | – | – | – | – | – | – | – | – | – | 18 µM | little effect
